In brackets after ≈: the same amount, converted by molar mass.

The target of data set [1] is T1, Galactokinase (Homo sapiens, UniProt P51570). Briefly: Inhibition of recombinant human GALK1 using galactose as substrate incubated for 1 hrs in the presence of ATP by Kinase-Glo reagent based luminescence assay.
Data set [2] in a line: Metabolic stability in human liver microsomes assessed as half life. Type of data set: ADME, Microsome. (In general: Microsomes from liver hold many membrane-bound enzymes, among them those of drug oxidation.)
Data set [3] can be described thus: physchem. The following applies: phosphate buffer, pH 7.4.
Description: Kinetic solubility of the compound in phosphate buffer at pH 7.4 at 150 uM incubated for 6 hrs by shake-flask method
Data set [4] in a line: Metabolic stability in mouse liver microsome assessed as half life. The format is ADME. As to conditions: microsomes.
The nature of data set [5]: Permeability of the compound at pH 7.4 measured after 30 mins by PAMPA based LC/MS analysis. The format is ADME. The following applies: PAMPA, pH 7.4, read-out: permeability. (In general: The PAMPA barrier holds no transporters, so it reflects passive diffusion.)
Data set [6] can be described thus: Drug concentration in CD-1 mouse plasma at 3 mg/kg, iv measured after 2 hrs by LC-MS/MS analysis. The format is ADME, organism-based. As to conditions: in vivo, BLD = below limit of detection.
Data set [7] in a line: AUCinfinity in CD-1 mouse at 50 mg/kg, ip measured upto 24 hrs by LC-MS/MS analysis. Type of data set: ADME, organism-based. Details: time < 24 hrs, dose 50 mg/kg, route ip. As to conditions: in vivo.
Data set [8] is described as follows: Oral bioavailability in CD-1 mouse at 30 mg/kg measured upto 24 hrs by LC-MS/MS analysis. The format is ADME, organism-based. The following applies: in vivo.
Data set [9] in a line: Cmax in CD-1 mouse at 30 mg/kg, po measured upto 24 hrs by LC-MS/MS analysis. The following applies: in vivo. The format is ADME, organism-based. Details: time < 24 hrs, dose 30 mg/kg, route po.
The nature of data set [10]: Dose normalized AUClast in CD-1 mouse at 30 mg/kg, po measured upto 24 hrs by LC-MS/MS analysis. Type of data set: ADME, organism-based. As to conditions: in vivo.
Data set [11] can be described thus: Dose normalized AUClast in CD-1 mouse at 50 mg/kg, ip measured upto 24 hrs by LC-MS/MS analysis. The following applies: in vivo. The format is ADME, organism-based.
Data set [12] in a line: Tmax in CD-1 mouse at 50 mg/kg, ip measured upto 24 hrs by LC-MS/MS analysis. The format is ADME, organism-based. The following applies: in vivo.
A short description of data set [13]: Dose normalized AUClast in CD-1 mouse at 3 mg/kg, iv measured upto 24 hrs by LC-MS/MS analysis. Type of data set: ADME, organism-based. The following applies: in vivo.
Data set [14] is described as follows: Drug concentration in CD-1 mouse plasma at 50 mg/kg, ip measured after 7 hrs by LC-MS/MS analysis. The format is ADME, organism-based.
The nature of data set [15]: AUClast in CD-1 mouse at 3 mg/kg, iv measured upto 24 hrs by LC-MS/MS analysis. The following applies: in vivo. The format is ADME, organism-based. Also noted: time < 24 hrs, dose 3 mg/kg, route iv.
Data set [16] can be described thus: C0 in CD-1 mouse at 3 mg/kg, iv measured upto 24 hrs by LC-MS/MS analysis. The following applies: in vivo. Type of data set: ADME, organism-based.
Data set [17] in a line: AUCinfinity in CD-1 mouse at 30 mg/kg, po measured upto 24 hrs by LC-MS/MS analysis. The format is ADME, organism-based. Details: time < 24 hrs, dose 30 mg/kg, route po. As to conditions: in vivo.
A short description of data set [18]: Half life in CD-1 mouse at 3 mg/kg, iv measured upto 24 hrs by LC-MS/MS analysis. As to conditions: in vivo. The format is ADME, organism-based.
Data set [19] addresses T1, Galactokinase. Briefly: Inhibition of human GALK1 in GALT-deficient human fibroblast assessed as reduction in gal-1P level at 3 uM incubated for 2 to 4 hrs by cellular Gal-1P accumulation assay relative to control. Type of data set: cell-based. The following applies: time 2-4 hrs.
Data set [20] can be described thus: Half life in CD-1 mouse at 50 mg/kg, ip measured upto 24 hrs by LC-MS/MS analysis. The format is ADME, organism-based. As to conditions: in vivo.
Data set [21] in a line: Plasma protein binding in CD-1 mouse. The format is ADME, cell-free.
In data set [22] the target is T1, Galactokinase. Briefly: Inhibition of human GALK1 in GALT-deficient human fibroblast assessed as reduction in gal-1P level incubated for 2 to 4 hrs by cellular Gal-1P accumulation assay. The following applies: dose 0.5-3 µM, time 2-4 hrs, DDE = dose-dependent effect. The format is cell-based.
Data set [23] in a line: Cmax in CD-1 mouse at 50 mg/kg, ip measured upto 24 hrs by LC-MS/MS analysis. The format is ADME, organism-based. Also noted: dose 50 mg/kg, time < 24 hrs, route ip. As to conditions: in vivo.
The nature of data set [24]: Half life in CD-1 mouse at 30 mg/kg, po measured upto 24 hrs by LC-MS/MS analysis. The format is ADME, organism-based. The following applies: in vivo.
Data set [25] can be described thus: Tmax in CD-1 mouse at 30 mg/kg, po measured upto 24 hrs by LC-MS/MS analysis. Type of data set: ADME, organism-based. The following applies: in vivo.
Data set [26] is described as follows: AUClast in CD-1 mouse at 30 mg/kg, po measured upto 24 hrs by LC-MS/MS analysis. The format is ADME, organism-based. Also noted: dose 30 mg/kg, time < 24 hrs, route po. The following applies: in vivo.
The nature of data set [27]: AUCinfinity in CD-1 mouse at 3 mg/kg, iv measured upto 24 hrs by LC-MS/MS analysis. As to conditions: in vivo. Details: time < 24 hrs, dose 3 mg/kg, route iv. The format is ADME, organism-based.
Data set [28] is described as follows: AUClast in CD-1 mouse at 50 mg/kg, ip measured upto 24 hrs by LC-MS/MS analysis. The format is ADME, organism-based. Also noted: time < 24 hrs, dose 50 mg/kg, route ip. The following applies: in vivo.
Data set [29] in a line: Observed volume of distribution at steady state in CD-1 mouse at 3 mg/kg, iv measured upto 24 hrs by LC-MS/MS analysis. The following applies: in vivo, read-out: Vdss. The format is ADME, organism-based.

T1 sequence (P51570 whole entry): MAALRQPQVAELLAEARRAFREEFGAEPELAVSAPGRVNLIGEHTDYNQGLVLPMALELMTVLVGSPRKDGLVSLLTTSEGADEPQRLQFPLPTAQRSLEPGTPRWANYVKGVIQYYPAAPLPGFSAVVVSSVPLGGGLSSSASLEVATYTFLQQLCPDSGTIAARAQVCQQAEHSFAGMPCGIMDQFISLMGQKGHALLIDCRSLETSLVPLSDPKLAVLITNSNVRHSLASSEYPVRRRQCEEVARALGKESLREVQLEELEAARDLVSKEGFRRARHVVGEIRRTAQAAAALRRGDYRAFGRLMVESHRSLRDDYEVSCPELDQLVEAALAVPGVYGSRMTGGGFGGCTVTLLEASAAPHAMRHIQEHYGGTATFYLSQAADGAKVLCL

With `CC1=C(C(=O)NCc2cnn(C)c2)[C@@H](c2ccc(C)cc2Cl)N=C(Nc2nc3cccc(N)c3o2)N1`, the IC50 in data set [1] (read-out: pIC50 (converted)) was 11.7 µM.
Same read-out and setting: as for `CC1=C(C(=O)Nc2cccc(C(=O)O)c2)C(c2ccccc2Cl)N=C(Nc2nc3ccccc3o2)N1` (stereo not given), the figure is 2.63 µM; as for `CC1=C(C(=O)Nc2cc(C(=O)O)ccn2)C(c2ccc(Cl)cc2Cl)N=C(Nc2nc3ccc(F)cc3o2)N1` (stereo not given), 1.05 µM; as for `CC1=C(C(=O)NCc2cccc(C(=O)O)c2)C(c2ccccc2Cl)N=C(Nc2nc3ccccc3o2)N1` (stereo not given), 9.33 µM.
`CC1=C(C(=O)Nc2ccccc2)C(c2ccccc2Cl)N=C(Nc2nc3ccccc3o2)N1` (stereo not given): the IC50 in data set [1] (read-out: pIC50 (converted)) was 10.5 µM.
Usually solubility (kinetic) stands for solubility judged after dilution from a stock solution rather than from solid. Regarding `CCn1cc(CNC(=O)C2=C(C)NC(Nc3nc4ccc(F)c(N)c4o3)=N[C@@H]2c2ccc(C)cc2Cl)cn1`, the figures for the t1/2 in data set [2] and in data set [4] were 10 min and 12 min, respectively. Moreover, in data set [3], the kinetic solubility at 6 h, 150 µM was found to be 2.1 µg/mL (≈ 3.91 µM). Further, in data set [5], the Papp at 0.5 h stood at 407 ×10⁻⁶ cm/s. Besides, the IC50 in data set [1] (read-out: pIC50 (converted)) was 1.48 µM.
The AUC is concentration integrated over time. Read a low AUC as less exposure. What is called Cmax is the maximum level reached in the sampled fluid or tissue. As a reminder, the Tmax is the time at which the peak concentration occurs. By inhibition is commonly meant the percentage by which the read-out fell short of the control. Turning to `CC1=C(C(=O)NCc2cnn(C)c2)C(c2ccc(C)cc2Cl)N=C(Nc2nc3ccc(F)c(N)c3o2)N1` (racemic), in [6], the Cp result is “Bld”. Further, the AUC was determined as 80.36 µM·h in [7], 16.06 µM·h in data set [17] and 4.81 µM·h in data set [27]. The same molecule had a F in [8] of 33%. Also, the Cmax in data set [9] was 7.02 µM; in data set [23], 21.9 µM. The AUClast/dose was 278 ng·h/mL/(mg/kg) in data set [10], 841 ng·h/mL/(mg/kg) in data set [11] and 812 ng·h/mL/(mg/kg) in data set [13]. In addition, the Tmax in [12] was 79.98 min; in data set [25] it was 40.2 min. Besides, in data set [14], the concentration at 7 h was > 1 µM. Further, the AUClast is 4.66 µM·h in data set [15], 15.96 µM·h in [26] and 80.36 µM·h in data set [28]. In data set [16], this molecule had a C0 at 24 h of 8.25 µM. For the same molecule, the solubility (kinetic) at 6 h, 150 µM in data set [3] came out at 1.3 µg/mL (≈ 2.49 µM). Besides, the t1/2 is 24.6 min in data set [18], 102 min in data set [20], 14 min in [4] and 136 min in data set [24]. Also, the inhibition in [19] was 50%; in data set [22] it was “Dde”. Moreover, the PPB in [21] was determined as 98.74%. Besides, in data set [5], the Papp at 0.5 h is 485 ×10⁻⁶ cm/s. For the same molecule, the IC50 in [1] (read-out: IC50) amounted to 0.048 µM. The Vd in [29] came to 0.652 L/kg.
`COc1ccc2oc(NC3=NC(c4ccccc4Cl)C(C(=O)Nc4cc(C(=O)O)ccn4)=C(C)N3)nc2c1` (stereo not given): the IC50 in [1] (read-out: pIC50 (converted)) was 6.61 µM.
Turning to `CC1=C(C(=O)Nc2nncs2)C(c2ccccc2Cl)N=C(Nc2nc3ccccc3o2)N1` (stereo not given), the IC50 is 3.43 µM in [1] (read-out: IC50) and 3.72 µM in data set [1] (read-out: pIC50 (converted)).
For `CC1=C(C(=O)Nc2cc(C(=O)O)ccn2)C(c2ccccc2Cl)N=C(Nc2nc3cccc(C)c3o2)N1` (stereo not given), in data set [1] (read-out: pIC50 (converted)), the IC50 is 0.933 µM.
As for `CC1=C(C(=O)Nc2cc(C(=O)O)ccn2)C(c2ccccc2Cl)N=C(Nc2nc3cc(Cl)ccc3o2)N1` (stereo not given), the IC50 in data set [1] (read-out: pIC50 (converted)) is 2.63 µM.
Regarding `CC1=C(C(=O)NCc2cnn(C)c2)[C@H](c2ccc(C)cc2Cl)N=C(Nc2nc3cccc(N)c3o2)N1`, the results for the t1/2 in data set [2] and in data set [4] were 37 min and 7 min, respectively. The kinetic solubility at 6 h, 150 µM in [3] is 17 µg/mL (≈ 33.7 µM). In data set [5], the Papp at 0.5 h was 661 ×10⁻⁶ cm/s. The IC50 in [1] (read-out: pIC50 (converted)) was 0.12 µM.
For `CC1=C(C(=O)Nc2cc(C(=O)O)ccn2)C(c2ccccc2Cl)N=C(Nc2nc3cccc(F)c3o2)N1` (stereo not given), the IC50 in data set [1] (read-out: pIC50 (converted)) is 1.78 µM.
With `CC1=C(C(=O)Nc2cccnc2)C(c2ccccc2Cl)N=C(Nc2nc3ccccc3o2)N1` (stereo not given), the IC50 in data set [1] (read-out: pIC50 (converted)) is 6.61 µM.
With `CCn1cc(CNC(=O)C2=C(C)NC(Nc3nc4ccc(F)c(N)c4o3)=NC2c2ccc(C)cc2Cl)cn1` (racemic), the t1/2 in data set [2] was 8 min; in data set [4] it was 14 min. The kinetic solubility at 6 h, 150 µM in data set [3] was < 1 µg/mL. For the same molecule, the Papp at 0.5 h in [5] is 410 ×10⁻⁶ cm/s. In addition, the IC50 in [1] (read-out: IC50) is 0.048 µM.
With `CC1=C(C(=O)Nc2cc(C(=O)O)ccn2)C(c2ccccc2Cl)N=C(Nc2nc3c(N)cccc3o2)N1` (stereo not given), the IC50 in data set [1] (read-out: pIC50 (converted)) was 19.5 µM.
With `COC(=O)c1ccc(NC(=O)C2=C(C)NC(Nc3nc4ccccc4o3)=NC2c2ccccc2Cl)cc1` (stereo not given), the IC50 in [1] (read-out: IC50) was 4.32 µM; in [1] (read-out: pIC50 (converted)), 4.47 µM.
For the molecule `CC1=C(C(=O)Nc2ccccc2Cl)C(c2ccccc2Cl)N=C(Nc2nc3ccccc3o2)N1` (stereo not given), the IC50 in [1] (read-out: pIC50 (converted)) was 4.17 µM.
On the same count and under the same terms, as for `COc1ccc2nc(NC3=NC(c4ccccc4Cl)C(C(=O)Nc4cc(C(=O)O)ccn4)=C(C)N3)oc2c1` (stereo not given), the figure is 19.5 µM.
